# Measurements reported in patent US20050208496A1, “Methods of testing for bronchial asthma or chronic obstructive pulmonary disease” (Genox Research, Inc., priority 2002, published 2005).
# Test system: mouse counterpart genes
# Assay: Mouse GeneChip (MG-U74A to MG-U74C) analysis of lung and trachea of the OVA antigen-exposed bronchial hypersensitivity model, S-Sal group versus S-OVA group
# Type: in vivo
# Conditions: S-Sal group vs S-OVA group
substance,measurement,setting,value
"ovalbumin [OVA antigen, ovalbumin antigen used for sensitization and inhalation to induce bronchial hypersensitivity in mice]","Fold Change, interferon gamma inducible protein 30 (mouse probe 97444_at)","3rd, chip A, P/A call A",1.8
same,"Fold Change, matrix metalloproteinase 7 (mouse probe 92917_at)","3rd, chip A, P/A call A",1.6
same,"Fold Change, matrix metalloproteinase 7 (mouse probe 162318_r_at)","3rd, chip A, P/A call A",1.3
same,"Fold Change, met proto-oncogene (mouse probe 100309_at)","3rd, chip A, P/A call A",1.9
same,"Fold Change, phosphotidylinositol transfer protein, beta (mouse probe 102697_at)","3rd, chip A, P/A call A",0.5
same,"Fold Change, A kinase anchor protein 2 (mouse probe 101435_at)","3rd, chip A, P/A call P",1
same,"Fold Change, DNA segment. Chr 16. ERATO Doi 269, expressed (mouse probe 97821_at)","3rd, chip A, P/A call P",1
same,"Fold Change, DNA segment. Chr 16. ERATO Doi 269, expressed (mouse probe 97823_g_at)","3rd, chip A, P/A call P",1.1
same,"Fold Change, a disintegrin and metalloprotease domain 8 (mouse probe 103024_at)","3rd, chip A, P/A call P",4.6
same,"Fold Change, arachidonate 15-lipoxygenase (mouse probe 98758_at)","3rd, chip A, P/A call P",8
same,"Fold Change, cholesterol 25-hydroxylase (mouse probe 104509_at)","3rd, chip A, P/A call P",1.9
same,"Fold Change, claudin 4 (mouse probe 101410_at)","3rd, chip A, P/A call P",1
same,"Fold Change, decay accelerating factor 1 (mouse probe 103617_at)","3rd, chip A, P/A call P",1.3
same,"Fold Change, interferon-stimulated protein (20 kDa) (mouse probe 103432_at)","3rd, chip A, P/A call P",1
same,"Fold Change, interleukin 1 receptor-like 1 (mouse probe 98500_at)","3rd, chip A, P/A call P",2.4
same,"Fold Change, low density lipoprotein receptor-related protein associated protein 1 (mouse probe 100086_at)","3rd, chip A, P/A call P",0.833
same,"Fold Change, low density lipoprotein receptor-related protein associated protein 1 (mouse probe 161988_f_at)","3rd, chip A, P/A call P",1.1
same,"Fold Change, membrane-associated protein 17 (mouse probe 96935_at)","3rd, chip A, P/A call P",1.1
same,"Fold Change, polycystic kidney disease 2 (mouse probe 100951_at)","3rd, chip A, P/A call P",0.667
same,"Fold Change, histocompatibility 2, Q region locus 7 (mouse probe 98438_f_at)","3rd, chip A, P/A call P, counterpart of human probe 37420_i_at",1.2
same,"Fold Change, histocompatibility 2, Q region locus 7 (mouse probe 98438_f_at)","3rd, chip A, P/A call P, counterpart of human probe 37421_f_at",1.2
same,"Fold Change, A kinase (PRKA) anchor protein 10 (mouse probe 163162_at)","3rd, chip B, P/A call A",0.526
same,"Fold Change, ESTs Putative Ortholog of ISG-54K gene (mouse probe 164273_at)","3rd, chip B, P/A call A",1.5
same,"Fold Change, ESTs, Highly similar to AF116721 8 PRO0907 [H. sapiens] (mouse probe 114151_at)","3rd, chip B, P/A call A",1.4
same,"Fold Change, decay accelerating factor 1 (mouse probe 164905_r_at)","3rd, chip B, P/A call A",1.1
same,"Fold Change, interferon gamma inducible protein 30 (mouse probe 164423_at)","3rd, chip B, P/A call A",4.1
same,"Fold Change, secreted end transmembrane 1 (mouse probe 115133_at)","3rd, chip B, P/A call A",0.625
same,"Fold Change, viral hemorrhagic septicemia virus(VHSV) induced gene 1 (mouse probe 109385_at)","3rd, chip B, P/A call A",0.286
same,"Fold Change, decay accelerating factor 1 (mouse probe 107626_at)","3rd, chip B, P/A call P",1.9
same,"Fold Change, deleted in bladder cancer chromosome region candidate 1 (human) Putative Ortholog (mouse probe 166806_at)","3rd, chip C, P/A call P",1
same,"Fold Change, interferon-induced protein with tetratricopeptide repeats 1 (mouse probe 168299_f_at)","3rd, chip C, P/A call P",1.2
same,"Fold Change, 2′-5′ oligoadenylate synthetase 1A (mouse Probe ID 102717_at)","chip A, 1st",1.6
same,"Fold Change, DnaJ (Hsp40) homolog, subfamily A, member 1 (mouse Probe ID 97261_at)","chip A, 1st",0.476
same,"Fold Change, SAM domain and HD domain, 1 (mouse Probe ID 103080_at)","chip A, 1st",1.3
same,"Fold Change, cadherin 6 (mouse Probe ID 101730_at)","chip A, 1st",0.833
same,"Fold Change, cyclin D3 (mouse Probe ID 160545_at)","chip A, 1st",0.625
same,"Fold Change, growth arrest and DNA-damage-inducible 45 gamma (mouse Probe ID 101979_at)","chip A, 1st",2.3
same,"Fold Change, heparan sulfate (glucosamine) 3-)-sulfotransferase 1 (mouse Probe ID 102410_at)","chip A, 1st",1.4
same,"Fold Change, hydroxysteroid (17-beta) dehydrogenase 2 (mouse Probe ID 101891_at)","chip A, 1st",1.8
same,"Fold Change, intercellular adhesion molecule (mouse Probe ID 96752_at)","chip A, 1st",1.3
same,"Fold Change, intercellular adhesion molecule (mouse Probe ID 1011414_at)","chip A, 1st",1
same,"Fold Change, interferon-induced protein with tetratricopeptide repeats 1 (mouse Probe ID 100981_at)","chip A, 1st",1.8
same,"Fold Change, interferon-stimulated protein (15 kDa) (mouse Probe ID 98822_at)","chip A, 1st",4.3
same,"Fold Change, interleukin 13 receptor, alpha 2 (mouse Probe ID 95344_at)","chip A, 1st",1.4
same,"Fold Change, nitric oxide synthase 2, inducible, macrophage (mouse Probe ID 104420_at)","chip A, 1st",2.3
same,"Fold Change, osteoblast specific factor 2 (fasciclin I-like) (mouse Probe ID 92593_at)","chip A, 1st",1.2
same,"Fold Change, proteosome (prosome, macropain) subunit, beta type 9 (mouse Probe ID 93085_at)","chip A, 1st",2.1
same,"Fold Change, sialyltransferase 1 (beta-galactoside alpha-2,6-sialyltransferase) (mouse Probe ID 94431_at)","chip A, 1st",0.385
same,"Fold Change, small inducible cytokine B subfamily (Cys-X-Cys), member 10 (mouse Probe ID 93858_at)","chip A, 1st",1.3
same,"Fold Change, thioredoxin reductase 1 (mouse Probe ID 99985_at)","chip A, 1st",1.2
same,"Fold Change, thioredoxin reductase 1 (mouse Probe ID 161043_r_at)","chip A, 1st",1.4
same,"Fold Change, thrombospondin 1 (mouse Probe ID 160469_at)","chip A, 1st",1.1
same,"Fold Change, transglutaminase 2, C polypeptide (mouse Probe ID 93352_at)","chip A, 1st",1
same,"Fold Change, 2′-5′ oligoadenylate synthetase 1A (mouse Probe ID 102717_at)","chip A, 2nd",1.7
same,"Fold Change, SAM domain and HD domain, 1 (mouse Probe ID 103080_at)","chip A, 2nd",1.3
same,"Fold Change, cadherin 6 (mouse Probe ID 101730_at)","chip A, 2nd",1.1
same,"Fold Change, cyclin D3 (mouse Probe ID 160545_at)","chip A, 2nd",1.1
same,"Fold Change, fructose bisphosphatase 1 (mouse Probe ID 96918_at)","chip A, 2nd",2.3
same,"Fold Change, growth arrest and DNA-damage-inducible 45 gamma (mouse Probe ID 101979_at)","chip A, 2nd",5.4
same,"Fold Change, heparan sulfate (glucosamine) 3-)-sulfotransferase 1 (mouse Probe ID 102410_at)","chip A, 2nd",0.4
same,"Fold Change, hydroxysteroid (17-beta) dehydrogenase 2 (mouse Probe ID 101891_at)","chip A, 2nd",0.667
same,"Fold Change, intercellular adhesion molecule (mouse Probe ID 96752_at)","chip A, 2nd",1.2
same,"Fold Change, intercellular adhesion molecule (mouse Probe ID 1011414_at)","chip A, 2nd",0.357
same,"Fold Change, interferon-induced protein with tetratricopeptide repeats 1 (mouse Probe ID 100981_at)","chip A, 2nd",1.9
same,"Fold Change, interferon-stimulated protein (15 kDa) (mouse Probe ID 98822_at)","chip A, 2nd",4.2
same,"Fold Change, interleukin 13 receptor, alpha 2 (mouse Probe ID 95344_at)","chip A, 2nd",1.5
same,"Fold Change, nitric oxide synthase 2, inducible, macrophage (mouse Probe ID 104420_at)","chip A, 2nd",1.1
same,"Fold Change, proteosome (prosome, macropain) subunit, beta type 9 (mouse Probe ID 93085_at)","chip A, 2nd",1.6
same,"Fold Change, sialyltransferase 1 (beta-galactoside alpha-2,6-sialyltransferase) (mouse Probe ID 94431_at)","chip A, 2nd",1.3
same,"Fold Change, small inducible cytokine B subfamily (Cys-X-Cys), member 10 (mouse Probe ID 93858_at)","chip A, 2nd",1.7
same,"Fold Change, thioredoxin reductase 1 (mouse Probe ID 161043_r_at)","chip A, 2nd",1.8
same,"Fold Change, thioredoxin reductase 1 (mouse Probe ID 161284_r_at)","chip A, 2nd",1.3
same,"Fold Change, thrombospondin 1 (mouse Probe ID 160469_at)","chip A, 2nd",1.7
same,"Fold Change, transforming growth factor, beta 2 (mouse Probe ID 93300_at)","chip A, 2nd",0.833
same,"Fold Change, transglutaminase 2, C polypeptide (mouse Probe ID 93352_at)","chip A, 2nd",1.3
same,"Fold Change, 2′-5′ oligoadenylate synthetase 1A (mouse Probe ID 102717_at)","chip A, 3rd",2.2
same,"Fold Change, DnaJ (Hsp40) homolog, subfamily A, member 1 (mouse Probe ID 97261_at)","chip A, 3rd",0.833
same,"Fold Change, cyclin D3 (mouse Probe ID 160545_at)","chip A, 3rd",0.833
same,"Fold Change, fructose bisphosphatase 1 (mouse Probe ID 96918_at)","chip A, 3rd",1.7
same,"Fold Change, growth arrest and DNA-damage-inducible 45 gamma (mouse Probe ID 101979_at)","chip A, 3rd",1.9
same,"Fold Change, heparan sulfate (glucosamine) 3-)-sulfotransferase 1 (mouse Probe ID 102410_at)","chip A, 3rd",1
same,"Fold Change, intercellular adhesion molecule (mouse Probe ID 1011414_at)","chip A, 3rd",1
same,"Fold Change, interferon-induced protein with tetratricopeptide repeats 1 (mouse Probe ID 100981_at)","chip A, 3rd",1.6
same,"Fold Change, interferon-stimulated protein (15 kDa) (mouse Probe ID 98822_at)","chip A, 3rd",2.2
same,"Fold Change, interleukin 13 receptor, alpha 2 (mouse Probe ID 95344_at)","chip A, 3rd",1.2
same,"Fold Change, osteoblast specific factor 2 (fasciclin I-like) (mouse Probe ID 92593_at)","chip A, 3rd",1
same,"Fold Change, proteosome (prosome, macropain) subunit, beta type 9 (mouse Probe ID 93085_at)","chip A, 3rd",1.1
same,"Fold Change, sialyltransferase 1 (beta-galactoside alpha-2,6-sialyltransferase) (mouse Probe ID 94431_at)","chip A, 3rd",1.6
same,"Fold Change, small inducible cytokine B subfamily (Cys-X-Cys), member 10 (mouse Probe ID 93858_at)","chip A, 3rd",2
same,"Fold Change, thioredoxin reductase 1 (mouse Probe ID 99985_at)","chip A, 3rd",1
same,"Fold Change, thioredoxin reductase 1 (mouse Probe ID 161043_r_at)","chip A, 3rd",0.588
same,"Fold Change, thrombospondin 1 (mouse Probe ID 160469_at)","chip A, 3rd",1.5
same,"Fold Change, transforming growth factor, beta 2 (mouse Probe ID 93300_at)","chip A, 3rd",0.5
same,"Fold Change, transglutaminase 2, C polypeptide (mouse Probe ID 93352_at)","chip A, 3rd",0.833
same,"Fold Change, RIKEN cDNA 2610017M01 gene (mouse Probe ID 105606_at)","chip B, 1st",1.5
same,"Fold Change, RIKEN cDNA 2610017M01 gene (mouse Probe ID 163053_at)","chip B, 1st",1
